# Data from US20210261621A1, “Preparation of Dilipid Polymixins and Use Thereof as Antimicrobial Adjuvants” (priority 2018, published 2021).
# Where two headings read alike, the source gives them in different places. Positions of bridges follow the written chain, without caps; N, C: chain ends. Non-standard residues stand in square brackets, D forms with d. Residues, ends and D or L forms follow the SMILES beside them. *: point of attachment. Octanoyl = CCCCCCCC(=O)*; Dab = NCC[C@H](N)C(=O)O
# Experiments:
# MSSE CANWARD-2008 81388 = assay type: cell-based, Staphylococcus epidermidis; conditions: for MIC: MSSE CANWARD-2008 81388 (methicillin-susceptible Staphylococcus epidermidis)
# Text: (§1) Bacterial strains were either obtained from the American Type Culture Collection (ATCC), Canadian National Intensive Care Unit (CAN-ICU) surveillance study or the Canadian Ward Surveillance (CANWARD) study. Strains from both CAN-ICU and CANWARD are isolates recovered from patients diagnosed with a presumed infectious disease that were admitted in a participating medical center across Canada. Efflux-deficient strain PAO200 (lacking MexAB-OprM efflux system) and PA0750 (lacking MexAB-OprM, MexCD-OprJ, MexEF-OprN, MexJK and MexXY efflux systems, and the outer membrane protein OpmH) were kindly gifted by Dr. Ayush Kumar (University of Manitoba).
# (§2) The in vitro antibacterial activity of the compounds studied were assessed by broth microdilution susceptibility testing following CLSI guidelines. Bacterial cultures were grown overnight prior to the assay. The overnight grown cultures were diluted in saline to 0.5 McFarland turbidity, followed by 1:50 dilution in Mueller-Hinton broth (MHB) for inoculation to a final concentration of approximately 5×10^5 colony forming units/mL. Testing was performed on 96-well plates where the tested compounds were 2-fold serially diluted in MHB and incubated with equal volumes of bacterial inoculum at 37° C. for 18 h. […] Wells containing MHB with or without bacterial cells were used as positive or negative control, respectively.
# MRSE CAN-ICU 61589 = assay type: cell-based, S. epidermidis
# Text: as §1, §2
# E. faecalis ATCC 29212 = assay type: cell-based
# Text: as §1, §2
# E. faecium ATCC 27270 = assay type: cell-based
# Text: as §1, §2
# S. pneumoniae ATCC 49619 = assay type: cell-based
# Text: as §1, §2
# P. aeruginosa ATCC 27853 = assay type: cell-based, Pseudomonas aeruginosa
# Text: as §1, §2
# [1] = system: P. aeruginosa CAN-ICU 62308; assay type: cell-based, Pseudomonas aeruginosa
# Text: as §1, §2
# P. aeruginosa PA095 = assay type: cell-based, Pseudomonas aeruginosa
# Text: as §1, §2
# P. aeruginosa PA100036 = assay type: cell-based, Pseudomonas aeruginosa
# Text: as §1, §2
# P. aeruginosa PA101885 = assay type: cell-based, Pseudomonas aeruginosa
# Text: as §1, §2
# [2] = system: P. aeruginosa PA259-96918; assay type: cell-based, Pseudomonas aeruginosa
# Text: as §1, §2
# [3] = system: P. aeruginosa PA260-97103; assay type: cell-based, Pseudomonas aeruginosa
# Text: as §1, §2
# [4] = system: P. aeruginosa PA264-104354; assay type: cell-based, Pseudomonas aeruginosa
# Text: as §1, §2
# P. aeruginosa PAO1 = assay type: cell-based, Pseudomonas aeruginosa
# Text: as §1, §2
# [5] = system: S. maltophilia CAN-ICU 62584; assay type: cell-based, Stenotrophomonas maltophilia
# Text: as §1, §2
# A. baumannii 110193 = assay type: cell-based, Acinetobacter baumannii
# Text: as §1, §2
# A. baumannii AB027 = assay type: cell-based, Acinetobacter baumannii
# Text: as §1, §2
# A. baumannii AB031 = assay type: cell-based, Acinetobacter baumannii
# Text: as §1, §2
# A. baumannii ATCC 17978 = assay type: cell-based, Acinetobacter baumannii
# Text: as §1, §2
# [6] = system: A. baumannii CAN-ICU 63169; assay type: cell-based, Acinetobacter baumannii
# Text: as §1, §2
# A. baumannii LAC-4 = assay type: cell-based, Acinetobacter baumannii
# Text: as §1, §2
# K. pneumoniae 116381 = assay type: cell-based, Klebsiella pneumoniae
# Text: as §1, §2
# K. pneumoniae ATCC 13883 = assay type: cell-based, Klebsiella pneumoniae
# Text: as §1, §2
# E. cloacae 117029 = assay type: cell-based, Enterobacter cloacae
# Text: as §1, §2
# P. aeruginosa PAO200 = conditions: for MIC: P. aeruginosa PAO200, efflux-deficient strain that lacks the MexAB-OprM pump; for difference in MIC among the three P. aeruginosa strains tested: PAO1, PAO200, PAO750
# Text: (§3) To our curiosity, we explored whether efflux can affect the activity of polymyxins. It is widely accepted that polymyxins disrupt Gram-negative bacterial membranes that result to intracellular component leakage and bacterial cell death. However, for this to occur requires the agent to reach the periplasmic space to interact and disrupt the inner membrane. Active efflux may potentially expel polymyxins out of the periplasm, effectively reducing its periplasmic and intracellular concentrations. To study the effect of efflux on polymyxins in Gram-negative pathogens, we used P. aeruginosa as they inherently overexpress efflux systems such as MexAB-OprM, MexCD-OprJ and MexXY-OprM. Moreover, antibiotic substrates for these efflux systems are mostly characterized. We evaluated and compared the activity of the dilipid polymyxins, colistin and PMBN against wild-type PAO1 and two efflux-deficient P. aeruginosa isogenic mutants (Table 5). The strain PAO200 lacks the MexAB-OprM efflux system while strain PAO750 lacks five clinically-relevant pumps (MexAB-OprM, MexCD-OprJ, MexEF-OprN, MexJK and MexXY) and outer membrane protein OpmH.
# as §1, §2
# P. aeruginosa PAO750 = conditions: P. aeruginosa PAO750, efflux-deficient strain that lacks five pumps and OpmH
# Text: as §3, §1, §2
molecule,measurement,setting,value
"CCCCCCCC(=O)NCC[C@H](NC(=O)CCCCCCC)C(=O)N[C@H](C(=O)N[C@@H](CCN)C(=O)N[C@H]1CCNC(=O)[C@H]([C@@H](C)O)NC(=O)[C@H](CCN)NC(=O)[C@H](CCN)NC(=O)[C@H](CC(C)C)NC(=O)[C@@H](Cc2ccccc2)NC(=O)[C@H](CCN)NC1=O)[C@@H](C)O [Compound 2, Dioctanoic Acid (Di-C8) Polymyxin] (Octanoyl-[Dab](Octanoyl)T[Dab][Dab][Dab][dF]L[Dab][Dab]T; lactam 4-C)",MIC,MSSE CANWARD-2008 81388,8 µg/mL
same,fold better MIC than colistin,MSSE CANWARD-2008 81388; methicillin-susceptible Staphylococcus epidermidis,32 fold
same,MIC,MRSE CAN-ICU 61589; CAN-ICU 61589,16 µg/mL
same,MIC,E. faecalis ATCC 29212; ATCC 29212,32 µg/mL
same,MIC,E. faecium ATCC 27270; ATCC 27270,16 µg/mL
same,MIC,S. pneumoniae ATCC 49619; ATCC 49619,32 µg/mL
same,MIC,P. aeruginosa ATCC 27853; ATCC 27853,8 µg/mL
same,MIC,[1]; CAN-ICU 62308,8 µg/mL
same,MIC,P. aeruginosa PA095; PA095,2 µg/mL
same,MIC,P. aeruginosa PA100036; PA100036,4 µg/mL
same,MIC,P. aeruginosa PA101885; PA101885,4 µg/mL
same,MIC,[2]; PA259-96918,2 µg/mL
same,MIC,[3]; PA260-97103,2 µg/mL
same,MIC,[4]; PA264-104354,4 µg/mL
same,MIC,P. aeruginosa PAO1; PAO1,4 µg/mL
same,MIC,[5]; CAN-ICU 62584,32 µg/mL
same,MIC,A. baumannii 110193; 110193,16 µg/mL
same,MIC,A. baumannii AB027; AB027,32 µg/mL
same,MIC,A. baumannii AB031; AB031,8 µg/mL
same,MIC,A. baumannii ATCC 17978; ATCC 17978,32 µg/mL
same,MIC,[6]; CAN-ICU 63169,64 µg/mL
same,MIC,A. baumannii LAC-4; LAC-4,16 µg/mL
same,MIC,K. pneumoniae 116381; 116381,>128 µg/mL
same,MIC,K. pneumoniae ATCC 13883; ATCC 13883,>128 µg/mL
same,MIC,E. cloacae 117029; 117029,2 µg/mL
same,MIC,P. aeruginosa PAO200,2 µg/mL
same,difference in MIC among the three P. aeruginosa strains tested,P. aeruginosa PAO200,no difference
same,MIC,P. aeruginosa PAO750,2 µg/mL
colistin [reference compound],MIC,MSSE CANWARD-2008 81388,256 µg/mL
same,MIC,MRSE CAN-ICU 61589; MRSE CAN-ICU 61589 (methicillin-resistant S. epidermidis),128 µg/mL
same,MIC,E. faecalis ATCC 29212; E. faecalis ATCC 29212,256 µg/mL
same,MIC,E. faecium ATCC 27270; E. faecium ATCC 27270,256 µg/mL
same,MIC,S. pneumoniae ATCC 49619; S. pneumoniae ATCC 49619,512 µg/mL
same,MIC,P. aeruginosa ATCC 27853; P. aeruginosa ATCC 27853,2 µg/mL
same,MIC,[1]; P. aeruginosa CAN-ICU 62308,2 µg/mL
same,MIC,P. aeruginosa PA095; P. aeruginosa PA095,0.25 µg/mL
same,MIC,P. aeruginosa PA100036; P. aeruginosa PA100036,1 µg/mL
same,MIC,P. aeruginosa PA101885; P. aeruginosa PA101885,1 µg/mL
same,MIC,[2]; P. aeruginosa PA259-96918,0.25 µg/mL
same,MIC,[3]; P. aeruginosa PA260-97103,0.5 µg/mL
same,MIC,[4]; P. aeruginosa PA264-104354,2 µg/mL
same,MIC,P. aeruginosa PAO1; P. aeruginosa PAO1 (wild type),1 µg/mL
same,MIC,[5]; S. maltophilia CAN-ICU 62584,64 µg/mL
same,MIC,A. baumannii 110193; A. baumannii 110193,0.25 µg/mL
same,MIC,A. baumannii AB027; A. baumannii AB027,0.25 µg/mL
same,MIC,A. baumannii AB031; A. baumannii AB031,0.25 µg/mL
same,MIC,A. baumannii ATCC 17978; A. baumannii ATCC 17978,0.25 µg/mL
same,MIC,[6]; A. baumannii CAN-ICU 63169,32 µg/mL
same,MIC,A. baumannii LAC-4; A. baumannii LAC-4,0.125 µg/mL
same,MIC,K. pneumoniae 116381; K. pneumoniae 116381,1 µg/mL
same,MIC,K. pneumoniae ATCC 13883; K. pneumoniae ATCC 13883,≤0.25 µg/mL
same,MIC,E. cloacae 117029; E. cloacae 117029,0.125 µg/mL
same,MIC,P. aeruginosa PAO200,0.5 µg/mL
same,difference in MIC among the three P. aeruginosa strains tested,P. aeruginosa PAO200,no difference
same,MIC,P. aeruginosa PAO750,0.5 µg/mL
